Measurements: patent US6716628B2, “Chondrogenesis promoters and indolin-2-one derivatives” (Chugai Seiyaku Kabushiki Kaisha, priority 1999, dated 2004)

Key:
rat knee joints = test: Chondrogenesis promoting effect with administration into rat knee joints; format: in vivo; conditions: 1 mmol/L, 50 μL per day into right knee joint for 3 weeks
Method: A 27G injection needle and 1 mL syringe (both by Terumo Corp.) were used to administer 1 mmol/L of “compound A” (dissolved in 50% DMSO dimethylsulfoxide)-physiological saline solution; DMSO by Junsei Chemical Corp., physiological saline by Otsuka Pharmaceutical Corp.) into the right knee joint of 10-week-old male SD rats (Nihon Charles River Corp.) at a dosage of 50 μL per day for 3 weeks.
Another test group was administered 50% DMSO-physiological saline (by Junsei Chemical Corp. and Otsuka Pharmaceutical Corp., respectively) in the same manner as a vehicle control.
After 3 weeks of daily administration, the rats were autopsied, and the distance between lateral and medial attachment sites of collateral ligament of the right femur was measured with calipers (Mitsutoyo Corp.) to determine the width of the femoral knee joint. Then, in the same manner as Example 1, tissue samples were prepared and stained with 0.3% Safranin O (Merck Co., Ltd.) and observed under a microscope (magnification: 10× object lens, product of Nihon Kogaku Corp.).

[1] = system: healthy rats (auricula, trachea, sternum, femoral/crural knee joint, lumbar spine disk cartilage); test: Chondrogenesis promoting effect with oral administration to healthy rats; format: in vivo, rat; conditions: oral 2 g/kg/day for 4 weeks, 6-week-old male SD rats, vs 3% gum Arabic vehicle; histology
From the text: “Compound A” obtained in Synthesis Example 1 above was suspended in a 3% gum Arabic solution and orally administered to 6-week-old male SD rats (Nihon SLC Corp./Nihon Charles River Corp.) at a dosage of 2 g/kg/day for 4 weeks.
Each rat was then autopsied, the auricula, trachea, sternum, femoral/crural knee joint and lumbar spine (disk) were immersed for one week in 20% neutral buffer formalin (Wako Pure Chemical Industries, Co., Ltd.) and fixed, the sternum, femoral/crural knee joint and lumbar spine (disk) were then demineralized for 2 weeks with a 20% EDTA-4Na solution (pH 7.4, Wako Pure Chemical Industries), and observation sites were trimmed with a razor (Feather Co., Ltd.). Observation sites were trimmed from the auricula and trachea with a razor without demineralization.
Each of the trimmed tissue samples was prepared into a paraffin embedded block using an automatic embedding apparatus (Sakura Corp.) and paraffin (equivalent mixture of products by Kokusan Kagaku Corp. and Fisher Scientific Corp.). Here, a paraffin automatic dispensing embedding center (Miles Scientific Corp.) was used to fix each paraffin block in a tissue sample cassette (TISSUE-TEK Corp.)
The paraffin block was cut into 2 μm-thick sections using a microtome (Daiwa Optical Instruments Corp.) and microtome knife (Feather Co., Ltd.), and then attached onto slide glass (Matsunami Glass Corp.) and dried. […]

[2] = system: common mouse chondrocyte and adipocyte precursor cell line (CL-1); test: Uptake of 35S-labeled sulfuric acid into CL-1; format: cell-based; conditions: 10 μmol/L (A and F also 1 or 5 μmol/L), 48 h culture
[3] = system: common mouse chondrocyte and adipocyte precursor cell line (CL-1); test: Uptake of 35S-labeled sulfuric acid into CL-1; format: cell-based; conditions: 10 μmol/L (A and F also 1 or 5 μmol/L), 48 h culture, uptake in final 24 h
Method: The above-mentioned cell line CL-1 was cultured in a 96-well cell culturing plate (Wallac Corp.) for a liquid scintillation counter (Wallac Corp.) to a cell density of 1000 per well. The medium used was α-MEM (GIBCO Corp.) containing 100 U/mL of penicillin (Meiji Seika Co., Ltd.), 100 μg/mL of streptomycin (Banyu Pharmaceutical Corp.) and 10% fetal bovine serum (INTERGEN Corp.). When the CL-1 cells reached confluency, the medium was exchanged with one containing 10 μmol/L of compounds A, B, C, D, E, F and G, and after 24 hours, ^35S-labeled sulfuric acid was added at 0.5 μCi per well and culturing was continued. For compounds A and F, a medium was also prepared with a concentration of 1 or 5 μmol/L. After 24 hours, the medium was discarded and the cell layer was fixed for 2 hours at room temperature using 0.2 mL of 5% paraformaldehyde (0.1 mol/L phosphate buffer solution (pH 7.4, Wako Pure Chemical Industries) containing 0.4% cetylpyridinium chloride (Wako Pure Chemical Industries). After discarding the fixing solution, it was washed once with the same solution and the washed solution was discarded. After adding 0.1 mL of scintillator (Wallac Corp.) to the cell layer and stirring, the radioactivity was measured with a scintillation counter (Wallac Corp.).

CCOC(CN1C(=O)[C@](CC(=O)Nc2ccc(C)cc2)(NC(=O)Nc2ccc(C)cc2)c2ccccc21)OCC [Compound A, (+)-1-(2,2-diethoxyethyl)-3-((4-methylphenyl)aminocarbonylmethyl)-3-(N′-(4-methylphenyl)ureido)indolin-2-one]
femoral knee joint width (rat knee joints; 10-week-old male SD rats, vs vehicle control): significantly larger | histological observation of femoral knee joint (Safranin O) (rat knee joints; rats): Safranin O-positive accelerated formation of cartilage tissue | hyaline cartilage formation (auricula, trachea, sternum, knee joint, lumbar spine disk) [1]: accelerated hyaline cartilage formation in all of the organs | differentiation of CL-1 to adipocytes [2]: clearly suppress | differentiation of CL-1 to chondrocytes (from 35S-labeled sulfuric acid uptake) [3]: clearly promote
